According to the NIST ThermoML archive (doi:10.1021/je100552a):

Assays:
[1] = refractive index (Na D-line) (dimensionless); xn = mol fraction of the nth substance listed; details: 101 kPa, Liquid, Standard Abbe refractometry
[2] = xn = mol fraction of the nth substance listed; details: 101 kPa, Liquid; for viscosity: Capillary tube (Ostwald / Ubbelohde) method

Clc1ccccc1 [chlorobenzene] + ClCCCl
Details | mass density, [2] [kg/m3] | refractive index, [1] | viscosity, [2] [mPa·s]
298.15 K, x2 = 0.1022 | 1111.56 | 1.5149 | 0.7456
298.15 K, x2 = 0.2015 | 1123.05 | 1.508 | 0.7387
298.15 K, x2 = 0.3013 | 1135.29 | 1.5012 | 0.7351
298.15 K, x2 = 0.4039 | 1148.64 | 1.4935 | 0.7364
298.15 K, x2 = 0.4999 | 1161.91 | 1.486 | 0.7372
298.15 K, x2 = 0.5977 | 1176.36 | 1.4781 | 0.741
298.15 K, x2 = 0.6986 | 1192.24 | 1.4696 | 0.7445
298.15 K, x2 = 0.8 | 1209.3 | 1.4607 | 0.7536
298.15 K, x2 = 0.899 | 1227.12 | 1.4516 | 0.7659
303.15 K, x2 = 0.1022 | 1106.04 | 1.512 | 0.7146
303.15 K, x2 = 0.2015 | 1117.48 | 1.5052 | 0.7049
303.15 K, x2 = 0.3013 | 1129.68 | 1.4983 | 0.6991
303.15 K, x2 = 0.4039 | 1142.96 | 1.4908 | 0.6969
303.15 K, x2 = 0.4999 | 1156.2 | 1.4832 | 0.6963
303.15 K, x2 = 0.5977 | 1170.62 | 1.4752 | 0.6973
303.15 K, x2 = 0.6986 | 1186.46 | 1.4666 | 0.6975
303.15 K, x2 = 0.8 | 1203.48 | 1.4576 | 0.7009
303.15 K, x2 = 0.899 | 1221.28 | 1.4484 | 0.71
308.15 K, x2 = 0.1022 | 1100.15 | 1.509 | 0.6659
308.15 K, x2 = 0.2015 | 1111.22 | 1.5022 | 0.6595
308.15 K, x2 = 0.3013 | 1123.02 | 1.4951 | 0.6542
308.15 K, x2 = 0.4039 | 1135.91 | 1.4873 | 0.6505
308.15 K, x2 = 0.4999 | 1148.68 | 1.4797 | 0.6506
308.15 K, x2 = 0.5977 | 1162.62 | 1.4715 | 0.65
308.15 K, x2 = 0.6986 | 1177.92 | 1.4626 | 0.6493
308.15 K, x2 = 0.8 | 1194.4 | 1.4534 | 0.653
308.15 K, x2 = 0.899 | 1211.62 | 1.444 | 0.6574
313.15 K, x2 = 0.1022 | 1094.68 | 1.5049 | 0.619
313.15 K, x2 = 0.2015 | 1105.79 | 1.4983 | 0.6151
313.15 K, x2 = 0.3013 | 1117.62 | 1.4915 | 0.6143
313.15 K, x2 = 0.4039 | 1130.48 | 1.4838 | 0.6119
313.15 K, x2 = 0.4999 | 1143.37 | 1.4763 | 0.6125
313.15 K, x2 = 0.5977 | 1157.36 | 1.4682 | 0.6158
313.15 K, x2 = 0.6986 | 1172.73 | 1.4595 | 0.6191
313.15 K, x2 = 0.8 | 1189.28 | 1.4503 | 0.6241
313.15 K, x2 = 0.899 | 1206.59 | 1.441 | 0.6314
